Test results published in patent US7816074B2, “α4 β2 δGABA-A receptors as a strategy for PMS and alcoholism” (priority 2003, dated 2010).
Like-named read-outs stand apart in the source and are kept apart here.

Experiments:
GABAR α4 subunit = test: Western blot of α4 subunit in hippocampus after steroid and ethanol administration; format: in vivo, rat
Procedure: Animals were administered steroids using one of two protocols: (i) For the 48 hour steroid administration protocol, animals were injected with 10 mg/kg 3α, 5β THP in oil, i.p., on a daily basis for three days and sacrificed 1-2 hour following the final injection. Controls were injected with oil vehicle. […] At this time, the capsule was removed and the animals were injected with 17 β estradiol (2 μgs/animal) in order to reset their cycle. Animals were sacrificed 24 hours later. […] In all cases, implantation and removal of capsules were performed under halothane anesthesia. […] Therefore, this study employed the 5β isomer of the steroid.
In some groups of animals, either ethanol (0.5 g/kg in saline) or saline vehicle was administered i.p. (3×, every 40 minutes) for the final 2 hours of the respective steroid administration or withdrawal paradigm. The use of multiple injections of low doses of ethanol would approximate ethanol consumption in the human more closely than would a single injection. For the 48 hour steroid administration paradigm, animals received their first ethanol injection immediately after the steroid injection, and subsequent injections at 40 minute intervals. In all cases, animals were sacrificed 40 minutes after the final ethanol injection (2 hours after the first ethanol injection and final steroid injection). All animal protocols were carried out with the approval of the Institutional Animal Care and Use Committee.
Hippocampi removed from steroid or vehicle-treated animals were homogenized, and membranes prepared as previously described (65). Following electrophoresis on 8% SDS polyacrylamide gels, membranes were transferred to a nitrocellulose membrane (Bio-Rad, Hercules, Calif.). α4 subunit levels were detected by evaluating the band density at 67 kDa after probing with a polyclonal antibody (64). Membranes were incubated for 1-2 hours at room temperature with a 1:5000 dilution of horseradish peroxidase-conjugated donkey anti-rabbit IgG (Amersham, Arlington Heights, Ill.), and visualized with enhanced chemiluminescence with varying concentrations of protein in the linear range. Immunoreactive band densities were quantified using a CCD camera (UMAX Scanner) and one-Dscan software, which uses multiple Gaussian fits to achieve accurate band density profiles.

[1] = test system: GABAA receptors of acutely isolated CA1 hippocampal pyramidal cells; test: Whole cell patch clamp, ethanol or THIP effect on GABA-gated current; format: cell-based, rat; details: for potentiation of GABA-gated currents: progesterone-withdrawal model; for potentiation of GABA-gated responses: after progesterone withdrawal
Procedure: Pyramidal neurons were acutely dissociated from CA1 hippocampus and GABA-gated Cl^− currents analyzed using whole cell patch clamp procedures as previously described (67). Briefly, tissue was digested at 32° C. for 50-60 minutes under 100% O2 in PIPES-buffered saline containing (in mM): NaCl 120, KCl 5, CaCl2 1, MgCl2 1, D-glucose 25, PIPES 20 and trypsin (type XI, sigma) 0.8 mg/ml, pH 7.0. After 1 hour of enzyme-free incubation at room temperature, tissue was dissociated by trituration in 1 ml of 20 mM HEPES-buffered DMEM which was replaced by recording medium after transfer to the recording chamber. GABA-gated currents were recorded at room temperature (20-25° C.) at a holding potential of −50 mV in a bath containing (in mM): NaCl 120, CsCl 5, CaCl2 2, MgCl2 1, TEA Cl 15, 4-aminopyridine 5, HEPES 10 and glucose 25, pH 7.4, 320 mOsm/kg H2O. The pipette solution contained (in mM): N-methyl-D-glucamine chloride 120, Cs4BAPTA 5 and Mg-ATP 5. The ATP regeneration system Tris phosphocreatine (20 mM) and creatine kinase were added to minimize GABA rundown. All drugs were obtained from Sigma Chemical Co, (St. Louis, Mo.), except for BAPTA (Calbiochem, San, Diego, Calif.).
Peak currents were calculated for all drug concentrations as relative to the current gated by 10 μM GABA alone using the equation: ([peak current: GABA+ETOH]−[peak current: GABA alone])/[peak current: GABA alone]. Currents were recorded using an Axopatch 1D amplifier (Axon Instruments) filtered at 2 kHz (four-pole Bessel filter) and detected at 500 Hz (pClamp 5.1).
Following progesterone withdrawal or control conditions, pyramidal cells were acutely isolated from CA1 hippocampus as described (65,64). GABA-gated Cl^− currents were recorded using whole cell patch clamp techniques at a holding potential of −50 mV.

α4β2δ GABAA receptors [2] = biological target: T1, α4β2δ GABAA receptors (UniProt O14764+P63138+Q9D6F4); details: oocytes (ref. 67), cited from earlier work
T1 construct: expressed in transfected cells

α4β2δ GABAA receptors [3] = biological target: T1, α4β2δ GABAA receptors; test: Two-electrode voltage-clamp of recombinant GABAA receptors in oocytes; format: cell-based; details: 1 mM ethanol
Procedure: Oocytes were injected with receptor subunit cRNAs (2 to 20 ng) in the following ratios: α1:β1:γ2S, α1:β2:γ2S and α1:β1:ε1, 1:1:1; α2:β1:γ2S, α5:β1:γ2S, α4:β1:γ2S, and α4:β2:γ2S, 10:1:1; α4:β1:δ, α4:β2:δ, α4:β3δ, 10:1:10; α1:β2:δ, 1:1:10 or 1:0.5:3; α1:β1:δ, 1:1:10 or 1:0.5:3; α2:β1:δ and α2:β2:δ, 1:0.5:3; α1:β1, α1:β2, α2:β1, α2:β2, β2:γ2S and α4δ, 1:1, α4:β1, α4:β2, α4:β3, 10:1, β2δ, 1:10.
Voltage-clamp recording was carried out 1 to 3 days after injection of cRNAs. Electrodes were filled with 3 M KCl and had resistances of 0.4-4 MΩ. Oocytes were positioned in a small Perspex chamber and continuously superfused with a saline solution (100 mM NaCl, 2 mM KCl, 1.8 mM CaCl2, 10 mM HEPES, pH 7.5). Agonists and modulators were both applied in the same saline solution. Oocytes were voltage-clamped at −70 mV and macroscopic currents were recorded with a two-electrode voltage-clamp using a Warner Instruments OC-725 amplifier as described previously (79). Currents were recorded on a chart recorder or by using Axograph on a Macintosh computer.

T1 sequence (Q9D6F4 36-552): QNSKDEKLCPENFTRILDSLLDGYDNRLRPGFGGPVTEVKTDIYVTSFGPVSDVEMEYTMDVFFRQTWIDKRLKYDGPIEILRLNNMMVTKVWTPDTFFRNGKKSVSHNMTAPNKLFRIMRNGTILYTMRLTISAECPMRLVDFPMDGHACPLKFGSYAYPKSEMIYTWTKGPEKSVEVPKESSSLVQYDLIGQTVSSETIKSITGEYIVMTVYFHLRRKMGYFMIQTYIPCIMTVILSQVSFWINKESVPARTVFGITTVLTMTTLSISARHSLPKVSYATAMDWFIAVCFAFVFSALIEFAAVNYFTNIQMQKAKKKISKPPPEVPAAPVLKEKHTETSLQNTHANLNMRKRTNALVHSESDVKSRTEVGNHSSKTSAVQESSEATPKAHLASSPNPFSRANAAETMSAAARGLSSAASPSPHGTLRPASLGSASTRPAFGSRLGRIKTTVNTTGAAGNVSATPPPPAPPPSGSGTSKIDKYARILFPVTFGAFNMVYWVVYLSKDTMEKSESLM
T1 sequence (P63138 25-474 limits assumed): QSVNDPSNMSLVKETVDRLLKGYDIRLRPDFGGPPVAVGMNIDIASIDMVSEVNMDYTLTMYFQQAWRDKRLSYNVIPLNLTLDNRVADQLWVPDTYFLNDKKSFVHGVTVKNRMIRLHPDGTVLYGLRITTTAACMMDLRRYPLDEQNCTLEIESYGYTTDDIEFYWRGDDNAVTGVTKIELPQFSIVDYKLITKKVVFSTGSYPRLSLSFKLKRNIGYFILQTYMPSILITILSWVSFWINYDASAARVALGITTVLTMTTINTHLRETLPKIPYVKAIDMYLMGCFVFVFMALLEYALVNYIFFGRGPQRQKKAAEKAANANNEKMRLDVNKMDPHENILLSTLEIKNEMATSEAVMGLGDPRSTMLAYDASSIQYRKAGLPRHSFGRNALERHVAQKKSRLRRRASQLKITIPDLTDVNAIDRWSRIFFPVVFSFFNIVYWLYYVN
T1 sequence (O14764 17-452 limits assumed): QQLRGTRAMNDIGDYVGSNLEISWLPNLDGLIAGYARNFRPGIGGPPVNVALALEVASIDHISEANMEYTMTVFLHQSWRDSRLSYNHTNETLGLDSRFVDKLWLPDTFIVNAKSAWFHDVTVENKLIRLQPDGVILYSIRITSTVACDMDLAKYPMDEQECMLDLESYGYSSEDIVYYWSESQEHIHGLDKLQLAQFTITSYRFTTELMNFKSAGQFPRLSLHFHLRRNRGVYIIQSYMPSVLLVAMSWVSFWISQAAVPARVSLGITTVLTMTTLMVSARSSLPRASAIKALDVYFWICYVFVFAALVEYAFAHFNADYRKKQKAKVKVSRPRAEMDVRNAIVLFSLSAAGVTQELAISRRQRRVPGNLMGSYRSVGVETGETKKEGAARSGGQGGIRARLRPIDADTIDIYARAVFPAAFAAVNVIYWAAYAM

increase of GABA-gated currents at α4β2δ receptors (α4β2δ GABAA receptors [3]): 45±11%
Compound: CCO [ethanol]
α4 expression (GABAR α4 subunit; 2 hour ethanol administration after progesterone withdrawal): unchanged from control levels | α4 expression in hippocampus (GABAR α4 subunit; ethanol 0.5 g/kg i.p. across final 2 hours of 48 h 3α,5β-THP administration): reversed the increase | α4 levels (GABAR α4 subunit; ethanol administered without steroid): no significant effect | GABA-modulatory effects of alcohol ([1]; 1 mM alcohol, progesterone withdrawal with α4 expression suppressed): prevented | potentiation of GABA-gated currents ([1]; 1 mM alcohol): 81±21% | potentiation of GABA-gated responses ([1]; 3 mM ethanol with 10 μM GABA): 75±10% | potentiation of GABA-gated currents ([1]; 10 mM and greater alcohol): not as effective | potentiation of GABA-gated responses ([1]; 20 mM ethanol): ineffective | effect on GABA responses ([1]; 3 or 20 mM ethanol, cells from control animals): neither concentration produced an effect | effect on α4β2δ GABAA receptor (α4β2δ GABAA receptors [2]; ethanol 1-3 mM): potentiated | effect on α4β2δ GABAA receptor (α4β2δ GABAA receptors [2]; ethanol >10 mM): ineffective
